Values joined by “and” are separate entries in the source; they are usually repeats but may differ in a detail not shown here. Identical values can stand only once. Values belong to the compound of their own block, whether it stands above or below them.
What was measured:
[1] = molecular target: T1, KLHDC2^SBD (Homo sapiens, UniProt Q9Y2U9); test: Thermal shift assay (Sypro Orange) probing stabilization of KLHDC2^SBD; format: binding; set-up: KLHDC2^SBD (15-361) and its Avi-tagged counterpart were expressed in E. coli Rosetta2 cells; 6XHis-MBP (N, cleaved yes); made in house; host or cells: E. coli Rosetta2; conditions: for ΔTm at 50 µM: read-out: ΔTm at 50 µM; for Thermal shift ΔTm: KLHDC2^SBD, ligand concentration not given
T1 sequence (Q9Y2U9 15-361): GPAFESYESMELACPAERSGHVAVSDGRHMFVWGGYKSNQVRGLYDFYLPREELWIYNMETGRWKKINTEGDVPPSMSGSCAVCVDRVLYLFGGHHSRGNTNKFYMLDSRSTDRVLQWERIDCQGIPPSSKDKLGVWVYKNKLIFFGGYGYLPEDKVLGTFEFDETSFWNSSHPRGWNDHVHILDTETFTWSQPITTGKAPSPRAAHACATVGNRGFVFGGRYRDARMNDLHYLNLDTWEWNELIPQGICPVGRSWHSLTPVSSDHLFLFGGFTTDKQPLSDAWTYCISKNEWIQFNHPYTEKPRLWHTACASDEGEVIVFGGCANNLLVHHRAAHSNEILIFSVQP
Protocol: In an attempt to identify non-peptide ligands that target KLHDC2’s substrate binding domain (SBD), we developed a thermal shift assay probing for stabilization of KLHDC2^SBD upon ligand addition. […] We utilized the thermal shift assay to screen ~ 9,000 molecules from a diverse collection of lead-like molecules (Figs. 1b, S1a, Supplementary Table 1).
Experimental compounds (200 nl each) were dispensed into a 384-well PCR plate using the Labcyte ECHO 655 T. The assay solution, comprising 0.5 μM KLHDC2, 25 mM HEPES, 200 mM NaCl, and 5% Sypro Orange at pH 7.5, was added to achieve a final volume of 20 μl. Negative control wells contained only DMSO, while positive control wells contained a di-Gly substrate peptide derived from SELK. Fluorescence measurements of Sypro Orange in each sample were taken using a Quantstudio 5 or Quantstudio 6, with temperatures ranging from 23 to 75 °C at a rate of 0.05 °C/s. Data analysis involved calculating thermal stability using the Boltzmann and first derivative minima equations in Thermo Scientific Protein Thermal Shift software v1.4. The resulting data were uploaded to CDD Vault for further analysis.
The 8892-compound lead-like one library was screened for its ability to stabilize KLHDC2 using a sypro orange-based thermal stability single-point assay.
Supplementary Ta b l e 1. Small molecule screening data
Category Parameter Description
Assay Ty p e o f assay Thermal Stability Screen
Primary measurement RFU of Sypro Orange
Key reagents Sypro Orange
Assay protocol Experimental compounds (200nl each) were dispensed into […]
a 384-well PCR plate using the Labcyte ECHO 655T. The […]
assay solution, comprising 0.5µM KLHDC2, 25mM HEPES,
200mM NaCl, and 5% Sypro Orange at pH 7.5, was added […]
to achieve a final volume of 20μl. Negative control wells […]
contained only DMSO, while positive control wells […]
contained peptide sub2. Fluorescence measurements of
Sypro Orange in each sample were taken using a
Quantstudio 5 or Quantstudio 6, with temperatures ranging […]
from 23 to 75°C at a rate of 0.05°C/second. Data analysis […]
involved calculating thermal stability using the Boltzmann […]
and first derivative minima equations in Thermo Scientific
Protein Thermal Shift software v1.4. The resulting data […]
were uploaded to CDD Vault for further analysis.
Library Library size 10041
Library composition The library was curated from compounds cherry picked […]
from St. Jude’s collection, representative of 80% of the […]
entire collection based on scaffold diversity (2D Molecular […]
fingerprinting based clustering) and structural properties: […]
lipophilicity (cLogP<3), size (MW 200-300 Da), and no […]
structural alerts (PAINS).
Source The compound collection was curated from multiple […]
vendors and stored on-site.
Screen Format The assay was completed in 26 384 well plates
Concentration(s) tested Compounds were tested at 100µM, and then a 16-point […]
serial dilution was performed on select compounds.
Plate controls DMSO as negative control and peptide sub2 as positive […]
Reagent/ compound dispensing system Multidrop Combi and Labcyte ECHO 655T […]
Detection instrument and software Quant Studio 5 and Quant Studio 6 and Thermo Scientific […]
Protein Thermal Shift software v1.4
Correction factors No correction factors were applied.

[2] = molecular target: T2, KLHDC2 (Homo sapiens, UniProt Q9Y2U9); test: Western blot of KLHDC2 levels after cellular dosing
T2 sequence (Q9Y2U9 1-406): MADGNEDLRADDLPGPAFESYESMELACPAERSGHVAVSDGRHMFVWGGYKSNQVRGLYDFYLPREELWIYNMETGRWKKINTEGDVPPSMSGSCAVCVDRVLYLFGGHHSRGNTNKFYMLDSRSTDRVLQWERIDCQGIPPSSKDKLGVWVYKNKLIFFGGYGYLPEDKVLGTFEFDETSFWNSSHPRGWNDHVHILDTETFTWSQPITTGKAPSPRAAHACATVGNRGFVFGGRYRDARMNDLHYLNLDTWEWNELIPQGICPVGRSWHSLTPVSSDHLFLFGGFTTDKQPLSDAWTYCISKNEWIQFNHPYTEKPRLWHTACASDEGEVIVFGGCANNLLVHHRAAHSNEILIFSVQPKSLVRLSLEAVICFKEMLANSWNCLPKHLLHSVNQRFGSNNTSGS

SMILES: O=C(O)CNC(=O)Cc1csc(-c2ccccc2F)n1 [SJ6145]
ΔTm at 50 µM [1]: 1.1 ± 0.03 °C

SMILES: COCOc1ccc(-c2nc(CC(=O)NCC(=O)O)cs2)c(Cl)c1 [SJ10278]
ΔTm at 50 µM [1]: 3.5 ± 0.3 °C

Thermal shift ΔTm [1]: 6.0 °C
SMILES: O=C(O)CNC(=O)Cc1csc(-c2ccc3ccccc3c2)n1 [SJ46411]

Thermal shift ΔTm [1]: 4.3 °C
SMILES: COCCOc1cccc2ccc(-c3nc(CC(=O)NCC(=O)O)cs3)cc12 [SJ46418]

SMILES: Cc1sc2c(c1C)C(c1ccc(Cl)cc1)=N[C@@H](CC(=O)N1CCN(CCOc3cccc4ccc(-c5nc(CC(=O)NCC(=O)O)cs5)cc34)CC1)c1nnc(C)n1-2 [SJ46421]
KLHDC2 level, Western blot quantification ([2]; Fig 6b, KO/Rescue, 5 uM, DMSO printed 0): 0
KLHDC2 level, Western blot quantification (DMSO = 100) ([2]; Fig 6b, U2OS, 5 uM): 103.737 and 122.001
KLHDC2 level, Western blot quantification (DMSO = 100) ([2]; Fig S6a, 293T cells, 2.5 uM): 109.414 and 102
KLHDC2 level, Western blot quantification (DMSO = 100) ([2]; Fig S6a, 293T cells, 5 uM): 112.068 and 103
KLHDC2 level, Western blot quantification (DMSO = 100) ([2]; Fig S6b, MDA-MB468 Cells, 10 uM): 128.202 and 120
